Results taken from PubChem BioAssay (NCI).
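The concentration for 50% growth inhibition is given as GI50. Definition used: TGI = concentration required for complete inhibition of growth.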

What was measured:
Experiment in all cases: inhibition of tumour cell growth, NCI panel, 384-well format
SK-MEL-2 melanoma = tested on: SK-MEL-2 melanoma
CCRF-CEM leukemia = tested on: CCRF-CEM leukemia
MOLT-4 leukemia = tested on: MOLT-4 leukemia
U251 glioblastoma = tested on: U251 glioblastoma
KM12 colon = tested on: KM12 colon
HOP-62 NSCLC = tested on: HOP-62 NSCLC
UACC-257 melanoma = tested on: UACC-257 melanoma
SK-MEL-28 melanoma = tested on: SK-MEL-28 melanoma
NCI-H226 lung = tested on: NCI-H226 lung
PC-3 prostate = tested on: PC-3 prostate
IGROV1 ovarian = tested on: IGROV1 ovarian
SF-539 CNS = tested on: SF-539 CNS
DU-145 prostate = tested on: DU-145 prostate
HOP-92 NSCLC = tested on: HOP-92 NSCLC
SF-295 CNS = tested on: SF-295 CNS
HL-60(TB) leukemia = tested on: HL-60(TB) leukemia
SR leukemia = tested on: SR leukemia
OVCAR-8 ovarian = tested on: OVCAR-8 ovarian
HCC-2998 colon = tested on: HCC-2998 colon
MDA-MB-468 breast = tested on: MDA-MB-468 breast
MALME-3M melanoma = tested on: MALME-3M melanoma
A549 NSCLC = tested on: A549 NSCLC
MDA-MB-231 breast = tested on: MDA-MB-231 breast
HS 578T breast = tested on: HS 578T breast
CAKI-1 renal = tested on: CAKI-1 renal
RPMI-8226 leukemia = tested on: RPMI-8226 leukemia
SF-268 CNS = tested on: SF-268 CNS
NCI-H522 lung = tested on: NCI-H522 lung
OVCAR-4 ovarian = tested on: OVCAR-4 ovarian
EKVX NSCLC = tested on: EKVX NSCLC
SK-OV-3 ovarian = tested on: SK-OV-3 ovarian
NCI/ADR-RES ovarian = tested on: NCI/ADR-RES ovarian
MDA-MB-435 melanoma = tested on: MDA-MB-435 melanoma
HCT-15 colon = tested on: HCT-15 colon
TK-10 renal = tested on: TK-10 renal
T-47D breast = tested on: T-47D breast
SN12C renal = tested on: SN12C renal
M14 melanoma = tested on: M14 melanoma
BT-549 breast = tested on: BT-549 breast
UACC-62 melanoma = tested on: UACC-62 melanoma
SK-MEL-5 melanoma = tested on: SK-MEL-5 melanoma
SW-620 colon = tested on: SW-620 colon
NCI-H460 NSCLC = tested on: NCI-H460 NSCLC
OVCAR-3 ovarian = tested on: OVCAR-3 ovarian
ACHN renal = tested on: ACHN renal
OVCAR-5 ovarian = tested on: OVCAR-5 ovarian
SNB-75 CNS = tested on: SNB-75 CNS
NCI-H322M lung = tested on: NCI-H322M lung
A498 renal = tested on: A498 renal
RXF 393 renal = tested on: RXF 393 renal
786-0 renal = tested on: 786-0 renal
NCI-H23 lung = tested on: NCI-H23 lung
SNB-19 CNS = tested on: SNB-19 CNS
COLO 205 colon = tested on: COLO 205 colon
MCF7 breast = tested on: MCF7 breast
HT29 colon = tested on: HT29 colon
UO-31 renal = tested on: UO-31 renal
K-562 leukemia = tested on: K-562 leukemia
LOX IMVI melanoma = tested on: LOX IMVI melanoma
HCT-116 colon = tested on: HCT-116 colon

## O=P(O)(O)C(O)(Cn1ccnc1)P(=O)(O)O
SK-MEL-2 melanoma
  GI50: > 100 µM
  TGI: > 100 µM
CCRF-CEM leukemia
  GI50: > 100 µM
  TGI: > 100 µM
MOLT-4 leukemia
  GI50: > 100 µM
  TGI: > 100 µM
U251 glioblastoma
  GI50: > 100 µM
  TGI: > 100 µM
KM12 colon
  GI50: > 100 µM
  TGI: > 100 µM
HOP-62 NSCLC
  GI50: > 100 µM
  TGI: > 100 µM
UACC-257 melanoma
  GI50: > 100 µM
  TGI: > 100 µM
SK-MEL-28 melanoma
  GI50: > 100 µM
  TGI: > 100 µM
NCI-H226 lung
  GI50: > 100 µM
  TGI: > 100 µM
PC-3 prostate
  GI50: > 100 µM
  TGI: > 100 µM
IGROV1 ovarian
  GI50: > 100 µM
  TGI: > 100 µM
SF-539 CNS
  GI50: > 100 µM
  TGI: > 100 µM
DU-145 prostate
  GI50: > 100 µM
  TGI: > 100 µM
HOP-92 NSCLC
  GI50: > 100 µM
  TGI: > 100 µM
SF-295 CNS
  GI50: > 100 µM
  TGI: > 100 µM
HL-60(TB) leukemia
  GI50: > 100 µM
  TGI: > 100 µM
SR leukemia
  GI50: > 100 µM
  TGI: > 100 µM
OVCAR-8 ovarian
  GI50: > 100 µM
  TGI: > 100 µM
HCC-2998 colon
  GI50: > 100 µM
  TGI: > 100 µM
MDA-MB-468 breast
  GI50: > 100 µM
  TGI: > 100 µM
MALME-3M melanoma
  GI50: > 100 µM
  TGI: > 100 µM
A549 NSCLC
  GI50: > 100 µM
  TGI: > 100 µM
MDA-MB-231 breast
  GI50: > 100 µM
  TGI: > 100 µM
HS 578T breast
  GI50: > 100 µM
  TGI: > 100 µM
CAKI-1 renal
  GI50: > 100 µM
  TGI: > 100 µM
RPMI-8226 leukemia
  GI50: > 100 µM
  TGI: > 100 µM
SF-268 CNS
  GI50: > 100 µM
  TGI: > 100 µM
NCI-H522 lung
  GI50: > 100 µM
  TGI: > 100 µM
OVCAR-4 ovarian
  GI50: > 100 µM
  TGI: > 100 µM
EKVX NSCLC
  GI50: > 100 µM
  TGI: > 100 µM
SK-OV-3 ovarian
  GI50: > 100 µM
  TGI: > 100 µM
NCI/ADR-RES ovarian
  GI50: > 100 µM
  TGI: > 100 µM
MDA-MB-435 melanoma
  GI50: > 100 µM
  TGI: > 100 µM
HCT-15 colon
  GI50: > 100 µM
  TGI: > 100 µM
TK-10 renal
  GI50: > 100 µM
  TGI: > 100 µM
T-47D breast
  GI50: > 100 µM
  TGI: > 100 µM
SN12C renal
  GI50: > 100 µM
  TGI: > 100 µM
M14 melanoma
  GI50: > 100 µM
  TGI: > 100 µM
BT-549 breast
  GI50: > 100 µM
  TGI: > 100 µM
UACC-62 melanoma
  GI50: > 100 µM
  TGI: > 100 µM
SK-MEL-5 melanoma
  GI50: > 100 µM
  TGI: > 100 µM
SW-620 colon
  GI50: > 100 µM
  TGI: > 100 µM
NCI-H460 NSCLC
  GI50: > 100 µM
  TGI: > 100 µM
OVCAR-3 ovarian
  GI50: > 100 µM
  TGI: > 100 µM
ACHN renal
  GI50: > 100 µM
  TGI: > 100 µM
OVCAR-5 ovarian
  GI50: > 100 µM
  TGI: > 100 µM
SNB-75 CNS
  GI50: > 100 µM
  TGI: > 100 µM
NCI-H322M lung
  GI50: > 100 µM
  TGI: > 100 µM
A498 renal
  GI50: > 100 µM
  TGI: > 100 µM
RXF 393 renal
  GI50: > 100 µM
  TGI: > 100 µM
786-0 renal
  GI50: > 100 µM
  TGI: > 100 µM
NCI-H23 lung
  GI50: > 100 µM
  TGI: > 100 µM
SNB-19 CNS
  GI50: > 100 µM
  TGI: > 100 µM
COLO 205 colon
  GI50: > 100 µM
  TGI: > 100 µM
MCF7 breast
  GI50: > 100 µM
  TGI: > 100 µM
HT29 colon
  GI50: > 100 µM
  TGI: > 100 µM

## C=CC(=O)Nc1cccc(Nc2nc(Nc3ccc(OCCOC)cc3)ncc2F)c1
CCRF-CEM leukemia
  GI50: 1.62 µM
  TGI: 3.39 µM
MOLT-4 leukemia
  GI50: 1.47 µM
  TGI: 2.84 µM
U251 glioblastoma
  GI50: 2.86 µM
  TGI: 13.1 µM
KM12 colon
  GI50: 3.53 µM
  TGI: 14.3 µM
UO-31 renal
  GI50: 1.17 µM
  TGI: 3.39 µM
HOP-62 NSCLC
  GI50: 2.9 µM
  TGI: 11.1 µM
UACC-257 melanoma
  GI50: 6.67 µM
  TGI: 19.3 µM
SK-MEL-28 melanoma
  GI50: 9.82 µM
  TGI: 21.6 µM
NCI-H226 lung
  GI50: 1 µM
  TGI: 5.79 µM
PC-3 prostate
  GI50: 2.81 µM
  TGI: 12.6 µM
IGROV1 ovarian
  GI50: 1 µM
  TGI: 2.28 µM
SF-539 CNS
  GI50: 1.48 µM
  TGI: 3.26 µM
DU-145 prostate
  GI50: 2.21 µM
  TGI: 13.5 µM
HOP-92 NSCLC
  GI50: 1.82 µM
  TGI: 9.64 µM
SF-295 CNS
  GI50: 4.9 µM
  TGI: 17.1 µM
HL-60(TB) leukemia
  GI50: 1.21 µM
  TGI: 2.64 µM
SR leukemia
  GI50: 0.933 µM
  TGI: 2.66 µM
OVCAR-8 ovarian
  GI50: 2.51 µM
  TGI: 8.72 µM
K-562 leukemia
  GI50: 3.73 µM
  TGI: 13.6 µM
HCC-2998 colon
  GI50: 2.55 µM
  TGI: 13.7 µM
MDA-MB-468 breast
  GI50: 0.562 µM
  TGI: 1.76 µM
MALME-3M melanoma
  GI50: 3.64 µM
  TGI: 16.8 µM
A549 NSCLC
  GI50: 2.88 µM
  TGI: 11.2 µM
MDA-MB-231 breast
  GI50: 2.3 µM
  TGI: 14.7 µM
HS 578T breast
  GI50: 1.05 µM
  TGI: 2.85 µM
CAKI-1 renal
  GI50: 0.602 µM
  TGI: 2.08 µM
RPMI-8226 leukemia
  GI50: 1.01 µM
  TGI: 2.99 µM
SF-268 CNS
  GI50: 2.34 µM
  TGI: 10.5 µM
NCI-H522 lung
  GI50: 1.48 µM
  TGI: 4.37 µM
OVCAR-4 ovarian
  GI50: 10.3 µM
  TGI: 22.1 µM
EKVX NSCLC
  GI50: 2.06 µM
  TGI: 9.06 µM
SK-OV-3 ovarian
  GI50: 0.755 µM
  TGI: 3.02 µM
NCI/ADR-RES ovarian
  GI50: 2.44 µM
  TGI: 6.32 µM
MDA-MB-435 melanoma
  GI50: 5.33 µM
  TGI: 17.6 µM
HCT-15 colon
  GI50: 1.97 µM
  TGI: 12.9 µM
TK-10 renal
  GI50: 1.31 µM
  TGI: 3.09 µM
T-47D breast
  GI50: 2.49 µM
  TGI: 13.9 µM
SN12C renal
  GI50: 1.28 µM
  TGI: 4.07 µM
M14 melanoma
  GI50: 1.71 µM
  TGI: 14.7 µM
BT-549 breast
  GI50: 0.802 µM
  TGI: 2.84 µM
UACC-62 melanoma
  GI50: 1.52 µM
  TGI: 12.8 µM
SK-MEL-5 melanoma
  GI50: 4.78 µM
  TGI: 18 µM
SW-620 colon
  GI50: 1.84 µM
  TGI: 4.16 µM
NCI-H460 NSCLC
  GI50: 2.02 µM
  TGI: 10.3 µM
OVCAR-3 ovarian
  GI50: 1.22 µM
  TGI: 4.74 µM
ACHN renal
  GI50: 1.01 µM
  TGI: 3.51 µM
SNB-75 CNS
  GI50: 1.1 µM
  TGI: 2.82 µM
NCI-H322M lung
  GI50: 1.63 µM
  TGI: 8.82 µM
A498 renal
  GI50: 0.493 µM
  TGI: 1.93 µM
RXF 393 renal
  GI50: 0.867 µM
  TGI: 3.26 µM
786-0 renal
  GI50: 1.68 µM
  TGI: 6.51 µM
NCI-H23 lung
  GI50: 2.42 µM
  TGI: 12.9 µM
SNB-19 CNS
  GI50: 4.01 µM
  TGI: 14.6 µM
LOX IMVI melanoma
  GI50: 2.19 µM
  TGI: 6.05 µM
COLO 205 colon
  GI50: 5.33 µM
  TGI: 16.7 µM
MCF7 breast
  GI50: 3.1 µM
  TGI: 14.8 µM
HT29 colon
  GI50: 2.98 µM
  TGI: 11.6 µM
HCT-116 colon
  GI50: 2.5 µM
  TGI: 12.7 µM
